Molecular target: Coagulation factor X (Homo sapiens, UniProt P00742)
Experiment: Inhibitory activity against human FXa

Sequence of Coagulation factor X (P00742 41-179 limits assumed): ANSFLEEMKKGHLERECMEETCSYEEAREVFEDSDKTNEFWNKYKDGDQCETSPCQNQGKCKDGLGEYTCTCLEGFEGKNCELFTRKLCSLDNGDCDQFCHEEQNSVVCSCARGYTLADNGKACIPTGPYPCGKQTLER
Sequence of Coagulation factor X (P00742 235-488 limits assumed): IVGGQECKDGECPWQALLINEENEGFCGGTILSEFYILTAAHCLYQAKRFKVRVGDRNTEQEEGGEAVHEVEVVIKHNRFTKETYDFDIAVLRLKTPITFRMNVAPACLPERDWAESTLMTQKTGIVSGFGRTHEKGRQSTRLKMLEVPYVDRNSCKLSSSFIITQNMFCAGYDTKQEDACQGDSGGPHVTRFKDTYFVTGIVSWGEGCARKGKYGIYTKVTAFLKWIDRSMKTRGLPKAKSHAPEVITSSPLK

SMILES	IC50 [nM]
Cc1cc2cc(N=C(N[C@H]3CCCCN(CC(=O)N4CCCC4)C3=O)C(C#N)C(=O)NC(N)=O)ccc2o1 (stereo partly drawn) [(S,Z)-1-(2-cyano-3-(2-methylbenzofuran-5-ylamino)-3-(2-oxo-1-(2-oxo-2-(pyrrolidin-1-yl)ethyl)azepan-3-ylamino)acryloyl)urea]	13
Cc1cc2cc(N=C(N[C@H]3CCCCN(CC(=O)N4CCCC4)C3=O)C(C#N)C(=O)c3ccc(Cl)cc3)ccc2o1 (stereo partly drawn) [(S,Z)-2-(4-chlorobenzoyl)-3-(2-methylbenzofuran-5-ylamino)-3-(2-oxo-1-(2-oxo-2-(pyrrolidin-1-yl)ethyl)azepan-3-ylamino)acrylonitrile]	13
COc1ccc(C(=O)C(C#N)C(=Nc2ccc3oc(C)cc3c2)N[C@H]2CCCCN(CC(=O)N3CCCC3)C2=O)cc1 (stereo partly drawn) [(S,Z)-2-(4-methoxybenzoyl)-3-(2-methylbenzofuran-5-ylamino)-3-(2-oxo-1-(2-oxo-2-(pyrrolidin-1-yl)ethyl)azepan-3-ylamino)acrylonitrile]	13
CN(C)c1ccc(NC(C[N+](=O)[O-])=N[C@H]2CCCCN(CC(=O)N3CCCC3)C2=O)cc1 [(S,Z)-3-(1-(4-(dimethylamino)phenylamino)-2-nitrovinylamino)-1-(2-oxo-2-(pyrrolidin-1-yl)ethyl)azepan-2-one]	> 34000
Cc1ccc(NC(C[N+](=O)[O-])=N[C@H]2CCCCN(CC(=O)N3CCCC3)C2=O)cc1 [(S,Z)-3-(1-(p-toluidino)-2-nitrovinylamino)-1-(2-oxo-2-(pyrrolidin-1-yl)ethyl)azepan-2-one]	> 34000
Cc1cc2cc(N=C(N[C@H]3CCCCN(CC(=O)N4CCCC4)C3=O)C(C#N)C(=O)N3CCC(C)CC3)ccc2o1 (stereo partly drawn) [(S,Z)-3-(2-methylbenzofuran-5-ylamino)-2-(4-methylpiperidine-1-carbonyl)-3-(2-oxo-1-(2-oxo-2-(pyrrolidin-1-yl)ethyl)azepan-3-ylamino)acrylonitrile]	57
Cc1cc2cc(N=C(N[C@H]3CCCCN(CC(=O)N4CCCC4)C3=O)C(C#N)C(=O)OC(C)(C)C)ccc2o1 (stereo partly drawn) [(S,Z)-tert-butyl 2-cyano-3-(2-methylbenzofuran-5-ylamino)-3-(2-oxo-1-(2-oxo-2-(pyrrolidin-1-yl)ethyl)azepan-3-ylamino)acrylate]	57

From BindingDB's records for doi:10.1016/j.bmcl.2005.08.107 (Bristol-Myers Squibb Pharmaceutical Research Institute, 2005)
